Reference: ChEMBL document CHEMBL5046270, “A Selective and Orally Bioavailable Quinoline-6-Carbonitrile-Based Inhibitor of CDK8/19 Mediator Kinase with Tumor-Enriched Pharmacokinetics” (J Med Chem, 2022)
The source made the active and inactive calls. The rule behind the calls is not given here.

Experiments:
[1] = target: Cyclin-C/Cyclin-dependent kinase 19 (Homo sapiens, UniProt Q9BWU1); test: Binding affinity to recombinant human CDK19/cyclinC assessed as dissociation constant by TR FRET based assay; type: protein-complex assay
[2] = Drug accumulation in liver of BALB/c mouse bearing CT26 tumor model at 100 mg/kg, po for 7 days by LC-MS/MS analysis; type: ADME, organism-based; details: in vivo, 168 h, time 7 day
[3] = Cmax in plasma of BALB/c mouse xenografted with mouse CT26 cells at 100 mg/kg, po by LC-MS/MS analysis; type: ADME, organism-based; design: route oral, dose 100 mg/kg
[4] = Elimination rate constant in plasma of BALB/c mouse xenografted with mouse CT26 cells at 100 mg/kg, po by LC-MS/MS analysis; type: ADME, organism-based
[5] = Toxicity in BALB/c mouse bearing CT26 tumor model assessed as change in body weight at 100 mg/kg, po qd for 7 days by LC-MS/MS analysis; type: organism-based; details: in vivo, 168 h, time 7 day
[6] = Elimination rate constant in tumor of BALB/c mouse xenografted with mouse CT26 cells at 100 mg/kg, po by LC-MS/MS analysis; type: ADME, organism-based, Neoplasm
HEK293 = test: Effect of compound on HEK293 cells assessed as expression of mRNA in NFkappaB induced CXCL8 gene in presence of pretreatment with TNFalpha for 2 hr by qPCR analysis; type: functional, cell-based; details: Homo sapiens
CT26 [7] = test: Downregulation of KLF2 gene expression in BALB/c mouse xenografted with mouse CT26 cells at 100 mg/kg, po 2 to 12 hrs […]; type: functional, organism-based; details: time 2-12 hrs, TDE = time-dependent effect
[8] = target: Cyclin-dependent kinase 19 (Homo sapiens) (UniProt Q9BWU1); test: Inhibition of human CDK19 at 2 uM by competition binding assay relative to control; details: values are per cent of control
[9] = target: T1, Serine/threonine-protein kinase haspin (Homo sapiens) (UniProt Q8TF76); test: Inhibition of human HASPIN at 2 uM by competition binding assay relative to control; details: values are per cent of control
T1 sequence (whole entry): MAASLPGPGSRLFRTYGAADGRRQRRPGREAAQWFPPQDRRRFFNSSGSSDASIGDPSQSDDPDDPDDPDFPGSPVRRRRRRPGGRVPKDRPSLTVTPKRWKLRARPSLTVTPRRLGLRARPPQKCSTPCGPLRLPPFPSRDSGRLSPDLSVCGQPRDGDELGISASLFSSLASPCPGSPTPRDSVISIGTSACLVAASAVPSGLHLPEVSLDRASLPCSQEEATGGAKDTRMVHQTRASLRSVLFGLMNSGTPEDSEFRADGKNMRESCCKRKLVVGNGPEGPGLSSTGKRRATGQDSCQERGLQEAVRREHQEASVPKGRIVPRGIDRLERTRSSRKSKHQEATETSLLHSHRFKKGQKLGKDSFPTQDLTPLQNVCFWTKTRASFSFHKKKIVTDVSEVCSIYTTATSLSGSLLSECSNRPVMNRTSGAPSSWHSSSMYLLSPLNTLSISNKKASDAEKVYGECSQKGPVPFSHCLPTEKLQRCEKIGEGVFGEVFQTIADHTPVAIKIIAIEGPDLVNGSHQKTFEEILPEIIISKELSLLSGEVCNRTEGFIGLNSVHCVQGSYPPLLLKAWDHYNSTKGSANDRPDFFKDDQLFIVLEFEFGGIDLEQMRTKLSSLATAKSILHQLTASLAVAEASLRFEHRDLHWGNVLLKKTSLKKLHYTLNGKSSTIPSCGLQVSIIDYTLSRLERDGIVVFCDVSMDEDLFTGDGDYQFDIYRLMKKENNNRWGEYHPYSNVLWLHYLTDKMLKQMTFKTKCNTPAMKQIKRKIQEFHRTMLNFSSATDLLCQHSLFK

[10] = target: T2, CDK8/Cyclin C (Homo sapiens) (UniProt P49336+P24863); test: Binding affinity to kinase tracer 236 binding to His tagged recombinant human CDK8/cyclinC assessed as rate constant (koff) by TR FRET based assay; type: protein-complex assay
[11] = Metabolic stability in human hepatocyte assessed as intrinsic clearance at 2 uM measured per 10^6 by LC-MS/MS analysis; type: ADME, cell-based; details: hepatocytes
[12] = Downregulation of CDK8/19 in HEK293 cells assessed as mRNA expression level in MYC gene at 1 uM for 3 hrs pretreatment and measured after 24 hr post wash-off by qt-PCR analysis; type: functional; details: Homo sapiens, time 27 hrs
[13] = AUC(0-24h) in plasma of BALB/c mouse xenografted with mouse CT26 cells at 100 mg/kg, po by LC-MS/MS analysis; type: ADME, organism-based; design: time < 24 hr, route oral, dose 100 mg/kg; details: in vivo
[14] = Cmax in tumor of BALB/c mouse xenografted with mouse CT26 cells at 100 mg/kg, po by LC-MS/MS analysis; type: ADME, organism-based, Neoplasm; design: route oral, dose 100 mg/kg
[15] = target: T3, Cyclin-C/Cyclin-dependent kinase 19 (Homo sapiens) (UniProt Q9BWU1+P24863); test: Binding affinity to recombinant human CDK19/cyclinC assessed as half life by TR FRET based assay; type: protein-complex assay
[16] = Inhibition of NF kappa B dependent CDK8/CDK19 in HEK293 cell incubated for 3 hrs in presence of TNF-alpha by Spectra max microtitre plate reader; type: cell-based; details: Homo sapiens, HEK293, 3 h
[17] = Half life in tumor of BALB/c mouse xenografted with mouse CT26 cells at 2.5 mg/kg, iv by LC-MS/MS analysis; type: ADME, organism-based, Neoplasm
MV4-11 = test: Antitumor activity against human luciferase expressing MV4-11 AML cells xenografted in NOD SCID NSG mouse assessed as supression of tumor growth at 40 mg/kg, po bid for 4 weeks by bioluminescence imaging method; type: functional, organism-based
[18] = target: T3, Cyclin-C/Cyclin-dependent kinase 19 (Homo sapiens); test: Binding affinity to recombinant human CDK19/cyclinC assessed as rate constant (kon) by TR FRET based assay; type: protein-complex assay
[19] = Oral bioavailability in tumor of BALB/c mouse xenografted with mouse CT26 cells at 100 mg/kg by LC-MS/MS; type: ADME, organism-based, Neoplasm
[20] = target: T2, CDK8/Cyclin C (Homo sapiens); test: Binding affinity to kinase tracer 236 binding to His tagged recombinant human CDK8/cyclinC assessed as half life by TR FRET based assay; type: protein-complex assay
[21] = target: T3, Cyclin-C/Cyclin-dependent kinase 19 (Homo sapiens); test: Binding affinity to recombinant human CDK19/cyclinC assessed as rate constant (koff) by TR FRET based assay; type: protein-complex assay
CDK8/Cyclin C = CDK8/Cyclin C (Homo sapiens, UniProt P49336); test: Inhibition of kinase tracer 236 binding to His tagged recombinant human CDK8/cyclin C incubated for 60 min FRET based LanthaScreen Eu-Kinase binding assay; type: protein-complex assay
[22] = Half life in tumor of BALB/c mouse xenografted with mouse CT26 cells at 100 mg/kg, po by LC-MS/MS analysis; type: ADME, organism-based, Neoplasm
[23] = target: Cyclin-dependent kinase 8 (Homo sapiens) (UniProt P49336); test: Inhibition of human CDK8 at 2 uM by competition binding assay relative to control; values are per cent of control
CT26 [24] = test: Downregulation of CCL12 gene expression in BALB/c mouse xenografted with mouse CT26 cells at 100 mg/kg, po 2 to 12 hrs […]; type: functional, organism-based; details: time 2-12 hrs, TDE = time-dependent effect

Cyclin-dependent kinase 19 (Homo sapiens), sequence (Q9BWU1 whole entry): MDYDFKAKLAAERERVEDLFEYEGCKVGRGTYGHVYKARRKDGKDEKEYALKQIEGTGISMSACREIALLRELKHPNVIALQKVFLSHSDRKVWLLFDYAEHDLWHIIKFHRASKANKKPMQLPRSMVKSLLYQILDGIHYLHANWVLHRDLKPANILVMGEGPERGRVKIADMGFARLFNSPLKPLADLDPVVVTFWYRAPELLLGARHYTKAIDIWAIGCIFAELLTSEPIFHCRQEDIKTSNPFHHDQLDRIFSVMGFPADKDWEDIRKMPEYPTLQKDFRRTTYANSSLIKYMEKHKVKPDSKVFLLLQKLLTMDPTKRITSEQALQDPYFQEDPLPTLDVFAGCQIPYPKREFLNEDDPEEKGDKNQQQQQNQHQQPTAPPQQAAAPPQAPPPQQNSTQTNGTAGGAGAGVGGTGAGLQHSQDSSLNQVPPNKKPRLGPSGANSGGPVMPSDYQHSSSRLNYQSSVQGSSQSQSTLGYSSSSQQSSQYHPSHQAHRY
Cyclin-C/Cyclin-dependent kinase 19, sequence (Q9BWU1 whole entry): as above
Cyclin-C/Cyclin-dependent kinase 19, sequence (P24863 whole entry, further chain): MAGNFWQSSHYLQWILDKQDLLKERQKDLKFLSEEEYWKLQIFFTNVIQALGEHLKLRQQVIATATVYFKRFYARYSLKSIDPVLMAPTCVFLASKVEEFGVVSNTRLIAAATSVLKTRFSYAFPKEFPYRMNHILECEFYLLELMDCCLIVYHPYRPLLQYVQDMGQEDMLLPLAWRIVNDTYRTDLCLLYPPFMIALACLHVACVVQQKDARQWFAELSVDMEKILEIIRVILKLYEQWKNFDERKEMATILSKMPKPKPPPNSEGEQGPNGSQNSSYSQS
CDK8/Cyclin C, sequence (P49336 whole entry): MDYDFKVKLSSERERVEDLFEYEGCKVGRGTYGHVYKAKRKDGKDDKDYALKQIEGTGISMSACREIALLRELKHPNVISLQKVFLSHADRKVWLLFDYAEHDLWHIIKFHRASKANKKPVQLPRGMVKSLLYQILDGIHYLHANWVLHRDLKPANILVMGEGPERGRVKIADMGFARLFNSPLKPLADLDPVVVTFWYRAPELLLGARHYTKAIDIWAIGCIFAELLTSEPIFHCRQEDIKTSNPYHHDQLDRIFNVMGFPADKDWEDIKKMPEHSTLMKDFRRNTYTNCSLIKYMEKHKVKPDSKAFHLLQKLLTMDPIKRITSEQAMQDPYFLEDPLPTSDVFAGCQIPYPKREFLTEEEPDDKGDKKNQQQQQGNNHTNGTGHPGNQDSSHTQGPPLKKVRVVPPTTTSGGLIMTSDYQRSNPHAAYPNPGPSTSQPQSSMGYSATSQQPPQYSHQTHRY
CDK8/Cyclin C, sequence (P24863 whole entry, further chain): as the sequence (P24863 whole entry, further chain) above
Cyclin-dependent kinase 8 (Homo sapiens), sequence (P49336 whole entry): as the sequence (P49336 whole entry) above

In the case of CN1CCN(C(=O)c2ccc3cc(CCNc4ccnc5ccc(C#N)cc45)ccc3c2)CC1, the Kd [1] is reported as 2.9 nM, the Drug uptake [2] is reported as “Active” and the Cmax [3] is reported as 144 ng/mL. The k el [4] was 5.56e-05 s⁻¹, the Activity [5] was “Non-Toxic” and the k el [6] was 2.78e-05 s⁻¹. The Activity (HEK293) was “Active”, the Activity (CT26 [7]) was “Tde” and the residual binding, % of control [8] was 13%. The residual binding, % of control [9] was 29%, the K [10] was 0.00122 s⁻¹ and the CLH [11] was 0.00639 mL/min. For the same compound, the inhibition at 1 µM [12] was 30%, the AUC [13] was 2182 ng·h/mL and the Cmax [14] was 5730 ng/mL. The T1/2 [15] was 4.25 min, the IC50 [16] was 56 nM and the half-life [17] was 12.1 h. For the same compound, the Activity (MV4-11) was “Active”, the K [18] was 9.39 10^6/M/s and the bioavailability [19] was 34.6%. The T1/2 [20] was 9.45 min, the K [21] was 0.00272 s⁻¹ and the IC50 (CDK8/Cyclin C) was 3.6 nM. For the same compound, the half-life [22] was 7.27 h, the residual activity [23] was 1% and the Activity (CT26 [24]) was “Tde”.
